The structures appear in SMILES notation.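 Cultured in 96-well plates, cells were exposed to test compound for 48 hours across five concentrations. GI50 = concentration required for 50% inhibition of growth. TGI denotes the concentration required for complete inhibition of growth.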

Assay in all cases: NCI tumour cell line growth inhibition, 48 h
Experiment [1] has as its system HS 578T breast.
The subject of experiment [2] is SNB-19 CNS.
Experiment [3] has as its system NCI/ADR-RES ovarian.
The subject of experiment [4] is SF-539 CNS.
The test system of experiment [5] is RXF 393 renal.
The subject of experiment [6] is MCF7 breast.
Experiment [7] has as its system NCI-H460 lung.
In experiment [8] the test system is MOLT-4 leukemia.
For experiment [9], the system named is RPMI-8226 leukemia.
The test system of experiment [10] is MALME-3M melanoma.

Consider `CCC1C2Cc3ccc(O)cc3C1(CC)CCN2C` (stereo not drawn), for which the TGI in experiment [1], in experiment [2], in [3], in experiment [4], in experiment [5] and in experiment [6] was > 100 µM each time. The TGI in experiment [7], in experiment [8], in [9] and in experiment [10] was > 100 µM throughout.
`Cc1cc(O)c(C(C)C)cc1S(=O)(=O)O` (tested in a mixture with another compound): the GI50 in [1] was 0.281 µM; in experiment [2] it was 0.423 µM; in [3] it was 0.658 µM; in experiment [4] it was 0.319 µM; in [5] it was 0.213 µM; in experiment [6] it was 0.325 µM. Moreover, the GI50 in [7] is 0.347 µM; in experiment [8], 0.401 µM; in [9] it was 0.357 µM; in [10], 0.774 µM. The TGI in experiment [1] was determined as 1.92 µM; in experiment [3] it was 4.79 µM; in experiment [6] it was 1.57 µM.
As for `C=C(C)C(=O)Nc1ccc(NC(C)C)cc1`, the GI50 in experiment [1], in experiment [2], in [3], in [4], in experiment [5] and in experiment [6] was > 100 µM throughout. The GI50 in experiment [7], in [8], in experiment [9] and in experiment [10] was > 100 µM throughout. For the same compound, the TGI in [1], in [2], in [3], in experiment [4], in [5] and in [6] was > 100 µM throughout. Moreover, the TGI in [7], in experiment [8], in experiment [9] and in experiment [10] was > 100 µM in each case.
Consider `COc1cc(/C=C/C(=O)c2cccc(Nc3nc(Nc4ccccc4)nc(Nc4ccccc4)n3)c2)cc(OC)c1OC`, for which the GI50 in experiment [1] was 4.83 µM; in experiment [2] it was 10.1 µM; in [3], 3.82 µM; in experiment [4], 12 µM; in experiment [5] it was 1.6 µM; in [6], 0.588 µM. Further, the GI50 was 2.05 µM in experiment [7], 1.07 µM in experiment [8], 0.53 µM in experiment [9] and 18.2 µM in experiment [10]. Also, the TGI in experiment [1] was > 54.4 µM; in [2] it was > 100 µM; in [3], > 100 µM; in [4], 34 µM; in experiment [5] it was 11.1 µM; in experiment [6], > 54.1 µM. Besides, the TGI stood at 20.9 µM in experiment [7], 4.38 µM in experiment [8], 4.58 µM in [9] and 79.3 µM in experiment [10].
`Cc1nn2c(/C=C3\C(=O)Nc4ccc(Cl)cc43)c(C)nc2s1`: the GI50 in [1] is 61.8 µM; in [2] it was 26.9 µM; in experiment [3], 15.8 µM; in experiment [4] it was 45 µM; in experiment [5], > 100 µM; in [6], 15.6 µM. In addition, the GI50 in experiment [7] was 16.3 µM; in experiment [8] it was 35.6 µM; in [9], 33.2 µM; in experiment [10], > 100 µM. Further, the TGI in experiment [1], in experiment [2], in experiment [3], in [4], in experiment [5] and in experiment [6] was > 100 µM each time. The TGI in [7], in experiment [8], in [9] and in [10] was > 100 µM throughout.
Regarding `C=C1C(=O)O[C@H]2[C@H]1CC/C(COC(=O)NCc1ccc(Cn3c(=O)sn(CCCl)c3=O)cc1)=C\CC[C@@]1(C)O[C@@H]21`, the GI50 in [1] is 12.1 µM; in experiment [2], 11.9 µM; in experiment [3] it was 26.3 µM; in experiment [4], 1.82 µM; in experiment [5] it was 1.18 µM; in experiment [6] it was 1.91 µM. Moreover, the GI50 is 15 µM in experiment [7], 1.85 µM in [8], 2.37 µM in experiment [9] and 1.72 µM in experiment [10]. For the same compound, the TGI is 55.9 µM in experiment [1]; 26.1 µM in experiment [2]; 77.8 µM in experiment [3]; 3.26 µM in [4]; 2.64 µM in [5]; 4.4 µM in experiment [6]. Further, the TGI in experiment [7] amounted to 32.5 µM; in experiment [8] it was 5.92 µM; in experiment [9] it was 6.25 µM; in experiment [10], 3.46 µM.
As to `C=C(C)C(=O)O[C@H]1CC(=C)[C@@H]2C[C@H](O)[C@](O)(CCl)[C@@H]2[C@H]2OC(=O)C(=C)[C@@H]21`, the GI50 in [1] is 11.6 µM; in experiment [2] it was 16.6 µM; in [3] it was 3.33 µM; in experiment [4] it was 1.98 µM; in experiment [5] it was 1.95 µM; in experiment [6], 1.6 µM. For the same compound, the GI50 is 10.2 µM in experiment [7], 1.44 µM in experiment [8], 1.43 µM in [9] and 1.86 µM in [10]. The TGI in experiment [1] came to 46.1 µM; in experiment [2] it was 32.2 µM; in [3], 13.2 µM; in experiment [4], 4.35 µM; in experiment [5], 3.98 µM; in [6] it was 4.04 µM. In addition, the TGI in experiment [7] was 28.2 µM; in experiment [8], 3.84 µM; in experiment [9], 4.78 µM; in [10], 3.6 µM.
Turning to `CN(O)c1nc(N(C)O)nc(N2CCOCC2)n1`, the GI50 in [1] is 64.2 µM; in experiment [2] it was 7.35 µM; in experiment [3] it was 2.56 µM; in [4], 4.1 µM; in [5], 6.15 µM; in experiment [6] it was 3.95 µM. Besides, the GI50 in experiment [7] is 0.8 µM; in experiment [8] it was 7.09 µM; in [9], 3.85 µM; in [10], 12.3 µM. Further, the TGI in experiment [1], in experiment [2], in experiment [3], in experiment [4], in [5] and in experiment [6] was > 100 µM throughout. Moreover, the TGI in [7], in experiment [8], in experiment [9] and in experiment [10] was > 100 µM each time.
On to `CC(C)(C)c1ccc(Oc2nccc(-c3c(-c4ccc(F)cc4)ncn3C3CCNCC3)n2)cc1`, for which the GI50 is 5.1 µM in experiment [1]; 3.73 µM in experiment [2]; 3.39 µM in [3]; 4.38 µM in experiment [4]; 3.22 µM in experiment [5]; 3.86 µM in experiment [6]. Further, the GI50 in experiment [7] is 3.91 µM; in experiment [8] it was 2.93 µM; in [9], 3.56 µM; in experiment [10], 4.94 µM. The TGI in experiment [1] is 13.1 µM; in [2], 7.42 µM; in [3], 7 µM; in [4] it was 8.03 µM; in [5] it was 7.07 µM; in experiment [6] it was 7.77 µM. Besides, the TGI in experiment [7] was found to be 8.21 µM; in [8], 7.13 µM; in experiment [9] it was 7.97 µM; in experiment [10] it was 9.38 µM.
On to `O=C(O)C(/C=C/c1ccccc1)c1ccccc1` (stereo not drawn), for which the TGI in experiment [1], in [2], in [3], in [4], in experiment [5] and in experiment [6] was > 100 µM in each case. In addition, the TGI in experiment [7], in experiment [8], in experiment [9] and in [10] was > 100 µM in each case.
For `Cc1cc2c(cc1C)N(C(=O)CCl)CC(=O)N2`, the GI50 in experiment [1] was 4.08 µM; in experiment [2] it was 12.6 µM; in [3], 3.18 µM; in experiment [4] it was 3.44 µM; in experiment [5], 2.46 µM; in experiment [6], 2.45 µM. Besides, the GI50 in experiment [7] was 3.66 µM; in experiment [8], 2.41 µM; in experiment [9], 2.35 µM; in [10], 1.81 µM. The TGI in experiment [1] was 68.8 µM; in experiment [2], 26.2 µM; in experiment [3], > 100 µM; in experiment [4], 10.9 µM; in experiment [5] it was 5.68 µM; in [6] it was 10.9 µM. For the same compound, the TGI in experiment [7] came to 14.4 µM; in experiment [8] it was 7.01 µM; in experiment [9] it was 7.15 µM; in experiment [10], 3.81 µM.
As for `COc1c(C)c2c(c(O)c1C/C=C(\C)CCC(=O)O)C(=O)OC2`, the GI50 in experiment [1] was 0.853 µM; in [2], 0.286 µM; in [3], 0.514 µM; in [4], 0.491 µM; in [5] it was 0.604 µM; in experiment [6] it was 0.18 µM. For the same compound, the GI50 in experiment [7] is 0.116 µM; in experiment [8] it was 0.208 µM; in [9] it was 0.518 µM; in [10], 0.714 µM. Also, the TGI in experiment [1], in [2], in experiment [3], in experiment [4], in experiment [5] and in experiment [6] was > 100 µM in each case. Also, the TGI in experiment [7], in [8], in [9] and in experiment [10] was > 100 µM throughout.
For the compound `C=C1CCC2C3(C)COC(c4ccc(N(C)C)cc4)OC3CCC2(C)C1C/C=C1/C(=O)OCC1O` (stereo not drawn), the GI50 in experiment [1] is 2.13 µM; in experiment [2], 16.4 µM; in experiment [3] it was 3.83 µM; in [4] it was 8.07 µM; in experiment [5] it was 1.97 µM; in [6], 2.32 µM. Besides, the GI50 is 4.1 µM in [7], 1.97 µM in experiment [8], 1.23 µM in [9] and 7.83 µM in experiment [10]. For the same compound, the TGI in experiment [1] came to 6.69 µM; in experiment [2], 32.3 µM; in [3], 43.5 µM; in experiment [4], 20.5 µM; in experiment [5], 4.06 µM; in [6], 13 µM. Further, the TGI in [7] worked out at 16.5 µM; in experiment [8] it was 5.68 µM; in experiment [9], 3.8 µM; in [10], 22.2 µM.
With `COC(=O)C1(C)CCC(c2ccc(C)cc2)=C(CC(=O)O)C1` (stereo not drawn), the TGI in experiment [1], in experiment [2], in experiment [3], in experiment [4], in experiment [5] and in [6] was > 100 µM each time. In addition, the TGI in [7], in experiment [8], in experiment [9] and in experiment [10] was > 100 µM throughout.
Regarding `COc1ccc2c(c1)c(=O)oc1cc(OC/C(C)=N\O)ccc12`, the GI50 in [1] was 27.6 µM; in experiment [2], 48.3 µM; in experiment [3] it was > 100 µM; in [4], 59.5 µM; in [5], 56.6 µM; in [6] it was > 100 µM. Further, the GI50 in experiment [7], in experiment [8], in experiment [9] and in experiment [10] was > 100 µM throughout. Besides, the TGI in experiment [1], in experiment [2], in [3], in experiment [4], in experiment [5] and in experiment [6] was > 100 µM in each case. Further, the TGI in experiment [7], in [8], in [9] and in experiment [10] was > 100 µM in each case.
For `FC(F)(F)c1ccc(Nc2nc(-c3c(C(F)(F)F)nc4ccccn34)cs2)cc1`, the GI50 in experiment [1] is 0.0356 µM; in experiment [2], 0.0625 µM; in experiment [3], 0.035 µM; in [4] it was 0.0383 µM; in experiment [5], 0.0389 µM; in experiment [6], 0.0341 µM. Also, the GI50 in experiment [7] is 0.0353 µM; in experiment [8], 0.146 µM; in [9] it was 0.0739 µM; in experiment [10] it was 0.064 µM. Further, the TGI in experiment [1] is 2.12 µM; in experiment [2], 18.5 µM; in experiment [3], 2.07 µM; in experiment [4], 0.276 µM; in [5] it was 0.316 µM; in experiment [6], 5.43 µM. Also, the TGI in experiment [7] was 4.75 µM; in [8], > 28.7 µM; in experiment [9], 6.01 µM; in experiment [10], 4.63 µM.

Source of the values: PubChem BioAssay (NCI).
